What was measured:
Type in all cases: in vivo
[1] = tested on: barnyard grass (Echinochloa crus-galli Beauv.); assay: Test Example 1: herbicidal effect on paddy field weeds before emergence; details: Dosage 5 kg/ha
Method in brief: (§1)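 Seeds of both weeds, still ungerminated, in soil pots held under paddy conditions received a set dose of test solution as soil treatment. After twenty-one days, control relative to untreated pots was calculated and rated on a scoring scale.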

[2] = tested on: bulrush (Scirpus juncoides Roxb.); assay: as above; details: Dosage 5 kg/ha
Method in brief: as §1

[3] = tested on: barnyard grass (Echinochloa crus-galli Beauv.); assay: Test Example 2: herbicidal effect on paddy field weeds after emergence; details: Dosage 5 kg/ha; one-leaved stage; 21 days after treatment
Method in brief: (§2)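 Weeds were sown in 1/10000 are pots of soil flooded to paddy conditions and grown to the one-leaf stage, then the soil was treated with a solution of compound at a predetermined dosage.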

[4] = tested on: bulrush (Scirpus juncoides Roxb.); assay: as above; details: Dosage 5 kg/ha; one-leaved stage; 21 days after treatment
Method in brief: as §2

[5] = tested on: monochoria (Monochoria vaginalis Presl); assay: as above; details: Dosage 5 kg/ha; one-leaved stage; 21 days after treatment
Method in brief: as §2

[6] = tested on: barnyard grass (Echinochloa crus-galli Beauv.), Ec; assay: Test Example 3: herbicidal effect on upland weeds before emergence; details: dosage 5 kg/ha
Method in brief: (§3)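 Read-out is the weed-killing rate, scored fourteen days after a single spray application made before the weeds emerged. The spray was a liquid agent carrying the active compound at a prescribed dose.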

[7] = tested on: bird's eye speedwell (Veronica persica Poir.), Vp; assay: as above; details: dosage 5 kg/ha
Method in brief: as §3

[8] = tested on: cleavers (Galium aparine L.), Ga; assay: as above; details: dosage 5 kg/ha
Method in brief: as §3

[9] = tested on: cocklebur (Xanthium strumarium L.), Xs; assay: as above; details: dosage 5 kg/ha
Method in brief: as §3

[10] = tested on: forxtail grass (Alopecurus aequalis var. amurensis Ohwi), Am; assay: as above; details: foxtail grass, dosage 5 kg/ha
Method in brief: as §3

[11] = tested on: velvetleaf (Abutilon theophtasti L.), At; assay: as above; details: dosage 5 kg/ha
Method in brief: as §3

[12] = tested on: soybean plant (So); assay: Test Example 3: phytotoxicity to upland crop plants, treatment before emergence; details: dosage 5 kg/ha
Method in brief: (§4)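 Crop injury to soybean and wheat was judged on a phytotoxicity scale 14 days after a pre-emergence spray of a liquid formulation at a prescribed concentration of compound.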

[13] = tested on: wheat (Wh); assay: as above; details: dosage 5 kg/ha
Method in brief: as §4

[14] = tested on: barnyard grass (Echinochloa crus-galli Beauv.), Ec; assay: Test Example 4: herbicidal effect on upland weeds after emergence; details: dosage 5 kg/ha; sprayed after emergence; judged 14 days after treatment
Method in brief: (§5)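 Post-emergence foliar spray at a prescribed concentration, applied once the sown weeds and soybean reached defined leaf stages in soil vats; herbicidal effect and soybean injury scored after 14 days.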

[15] = tested on: bird's eye speedwell (Veronica persica Poir.), Vp; assay: as above; details: dosage 5 kg/ha; sprayed after emergence; judged 14 days after treatment
Method in brief: as §5

[16] = tested on: cleavers (Galium aparine L.), Ga; assay: as above; details: dosage 5 kg/ha; sprayed after emergence; judged 14 days after treatment
Method in brief: as §5

[17] = tested on: cocklebur (Xanthium strumarium L.), Xs; assay: as above; details: dosage 5 kg/ha; sprayed after emergence; judged 14 days after treatment
Method in brief: as §5

[18] = tested on: forxtail grass (Alopecurus aequalis var. amurensis Ohwi), Am; assay: as above; details: dosage 5 kg/ha; sprayed after emergence; judged 14 days after treatment
Method in brief: as §5

[19] = tested on: velvetleaf (Abutilon theophtasti L.), At; assay: as above; details: dosage 5 kg/ha; sprayed after emergence; judged 14 days after treatment
Method in brief: as §5

[20] = tested on: soybean plant; assay: Test Example 4: phytotoxicity to upland crop plants, treatment after emergence; details: dosage 5 kg/ha, sprayed after emergence, judged 14 days after treatment
Method in brief: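 Scores of weed-killing rate, with crop phytotoxicity, come from inspection 14 days after plants in soil vats, grown to specified leaf stages, are sprayed with a formulation holding the compound at a prescribed concentration.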

[21] = tested on: wheat; assay: as above; details: dosage 5 kg/ha, sprayed after emergence, judged 14 days after treatment
Method in brief: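 Post-emergence foliar spray, compound at prescribed concentration, applied at defined leaf stages; weeds plus soybean/wheat grown in soil vats. Read-out: weed-killing rate and crop injury, 14 d post-treatment.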

SMILES: CCCNC(=O)c1nc2scc(Br)c2cc1C(=O)Nc1c(CC)ccc(Cl)c1CC [compound 814]
- Pre-emergence treatment Barnyard grass (herbicidal effect) [1]: 5 (Weed-killing rate is 100%.)
- Pre-emergence treatment Bulrush (herbicidal effect) [2]: 5 (Weed-killing rate is 100%.)
- Post-emergence treatment Barnyard grass (herbicidal effect) [3]: 5 (Weed-killing rate is 100%.)
- Post-emergence treatment Bulrush (herbicidal effect) [4]: 5 (Weed-killing rate is 100%.)
- Post-emergence treatment Monochoria (herbicidal effect) [5]: 5 (Weed-killing rate is 100%.)
- Herbicidal effect Ec [6]: 5 (Weed-killing rate is 100%.)
- Herbicidal effect Vp [7]: 5 (Weed-killing rate is 100%.)
- Herbicidal effect Ga [8]: 4 (Weed-killing rate is 90-99%.)
- Herbicidal effect Xs [9]: 4 (Weed-killing rate is 90-99%.)
- Herbicidal effect Am [10]: 5 (Weed-killing rate is 100%.)
- Herbicidal effect At [11]: 5 (Weed-killing rate is 100%.)
- Phytotoxicity So [12]: 3 (Crop-killing rate is 70-89%.)
- Phytotoxicity Wh [13]: 4 (Crop-killing rate is 90-99%.)
- Herbicidal effect Ec [14]: 5 (Weed-killing rate is 100%.)
- Herbicidal effect Vp [15]: 5 (Weed-killing rate is 100%.)
- Herbicidal effect Ga [16]: 4 (Weed-killing rate is 90-99%.)
- Herbicidal effect Xs [17]: 4 (Weed-killing rate is 90-99%.)
- Herbicidal effect Am [18]: 5 (Weed-killing rate is 100%.)
- Herbicidal effect At [19]: 5 (Weed-killing rate is 100%.)
- Phytotoxicity So [20]: 3 (Crop-killing rate is 70-89%.)
- Phytotoxicity Wh [21]: 4 (Crop-killing rate is 90-99%.)

SMILES: CCCNC(=O)c1nc2c(ccn2C)cc1C(=O)Nc1c(CC)ccc(Cl)c1CC [compound 824]
- Pre-emergence treatment Barnyard grass (herbicidal effect) [1]: 5 (Weed-killing rate is 100%.)
- Pre-emergence treatment Bulrush (herbicidal effect) [2]: 5 (Weed-killing rate is 100%.)
- Post-emergence treatment Barnyard grass (herbicidal effect) [3]: 5 (Weed-killing rate is 100%.)
- Post-emergence treatment Bulrush (herbicidal effect) [4]: 5 (Weed-killing rate is 100%.)
- Post-emergence treatment Monochoria (herbicidal effect) [5]: 5 (Weed-killing rate is 100%.)
- Herbicidal effect Ec [6]: 5 (Weed-killing rate is 100%.)
- Herbicidal effect Vp [7]: 5 (Weed-killing rate is 100%.)
- Herbicidal effect Ga [8]: 5 (Weed-killing rate is 100%.)
- Herbicidal effect Xs [9]: 5 (Weed-killing rate is 100%.)
- Herbicidal effect Am [10]: 5 (Weed-killing rate is 100%.)
- Herbicidal effect At [11]: 5 (Weed-killing rate is 100%.)
- Phytotoxicity So [12]: 5 (Crop-killing rate is 100%.)
- Phytotoxicity Wh [13]: 5 (Crop-killing rate is 100%.)
- Herbicidal effect Ec [14]: 5 (Weed-killing rate is 100%.)
- Herbicidal effect Vp [15]: 5 (Weed-killing rate is 100%.)
- Herbicidal effect Ga [16]: 5 (Weed-killing rate is 100%.)
- Herbicidal effect Xs [17]: 5 (Weed-killing rate is 100%.)
- Herbicidal effect Am [18]: 5 (Weed-killing rate is 100%.)
- Herbicidal effect At [19]: 5 (Weed-killing rate is 100%.)
- Phytotoxicity So [20]: 4 (Crop-killing rate is 90-99%.)
- Phytotoxicity Wh [21]: 5 (Crop-killing rate is 100%.)

SMILES: CCCNC(=O)c1nc2cscc2cc1C(=O)Nc1c(CC)ccc(Cl)c1CC [compound 836]
- Pre-emergence treatment Barnyard grass (herbicidal effect) [1]: 5 (Weed-killing rate is 100%.)
- Pre-emergence treatment Bulrush (herbicidal effect) [2]: 5 (Weed-killing rate is 100%.)
- Post-emergence treatment Barnyard grass (herbicidal effect) [3]: 5 (Weed-killing rate is 100%.)
- Post-emergence treatment Bulrush (herbicidal effect) [4]: 5 (Weed-killing rate is 100%.)
- Post-emergence treatment Monochoria (herbicidal effect) [5]: 5 (Weed-killing rate is 100%.)
- Herbicidal effect Ec [6]: 5 (Weed-killing rate is 100%.)
- Herbicidal effect Vp [7]: 5 (Weed-killing rate is 100%.)
- Herbicidal effect Ga [8]: 5 (Weed-killing rate is 100%.)
- Herbicidal effect Xs [9]: 5 (Weed-killing rate is 100%.)
- Herbicidal effect Am [10]: 5 (Weed-killing rate is 100%.)
- Herbicidal effect At [11]: 5 (Weed-killing rate is 100%.)
- Phytotoxicity So [12]: 4 (Crop-killing rate is 90-99%.)
- Phytotoxicity Wh [13]: 5 (Crop-killing rate is 100%.)
- Herbicidal effect Ec [14]: 5 (Weed-killing rate is 100%.)
- Herbicidal effect Vp [15]: 5 (Weed-killing rate is 100%.)
- Herbicidal effect Ga [16]: 5 (Weed-killing rate is 100%.)
- Herbicidal effect Xs [17]: 5 (Weed-killing rate is 100%.)
- Herbicidal effect Am [18]: 5 (Weed-killing rate is 100%.)
- Herbicidal effect At [19]: 5 (Weed-killing rate is 100%.)
- Phytotoxicity So [20]: 4 (Crop-killing rate is 90-99%.)
- Phytotoxicity Wh [21]: 5 (Crop-killing rate is 100%.)

SMILES: CCCNC(=O)c1nc2ccoc2cc1C(=O)Nc1c(CC)ccc(Cl)c1CC [compound 847]
- Pre-emergence treatment Barnyard grass (herbicidal effect) [1]: 5 (Weed-killing rate is 100%.)
- Pre-emergence treatment Bulrush (herbicidal effect) [2]: 5 (Weed-killing rate is 100%.)
- Post-emergence treatment Barnyard grass (herbicidal effect) [3]: 5 (Weed-killing rate is 100%.)
- Post-emergence treatment Bulrush (herbicidal effect) [4]: 5 (Weed-killing rate is 100%.)
- Post-emergence treatment Monochoria (herbicidal effect) [5]: 5 (Weed-killing rate is 100%.)
- Herbicidal effect Ec [6]: 5 (Weed-killing rate is 100%.)
- Herbicidal effect Vp [7]: 5 (Weed-killing rate is 100%.)
- Herbicidal effect Ga [8]: 5 (Weed-killing rate is 100%.)
- Herbicidal effect Xs [9]: 5 (Weed-killing rate is 100%.)
- Herbicidal effect Am [10]: 5 (Weed-killing rate is 100%.)
- Herbicidal effect At [11]: 5 (Weed-killing rate is 100%.)
- Phytotoxicity So [12]: 4 (Crop-killing rate is 90-99%.)
- Phytotoxicity Wh [13]: 5 (Crop-killing rate is 100%.)
- Herbicidal effect Ec [14]: 5 (Weed-killing rate is 100%.)
- Herbicidal effect Vp [15]: 5 (Weed-killing rate is 100%.)
- Herbicidal effect Ga [16]: 5 (Weed-killing rate is 100%.)
- Herbicidal effect Xs [17]: 5 (Weed-killing rate is 100%.)
- Herbicidal effect Am [18]: 5 (Weed-killing rate is 100%.)
- Herbicidal effect At [19]: 5 (Weed-killing rate is 100%.)
- Phytotoxicity So [20]: 4 (Crop-killing rate is 90-99%.)
- Phytotoxicity Wh [21]: 5 (Crop-killing rate is 100%.)

SMILES: CCNC(=O)c1nc2ccsc2cc1C(=O)Nc1c(CC)ccc(Cl)c1CC [compound 870]
- Pre-emergence treatment Barnyard grass (herbicidal effect) [1]: 5 (Weed-killing rate is 100%.)
- Pre-emergence treatment Bulrush (herbicidal effect) [2]: 5 (Weed-killing rate is 100%.)
- Post-emergence treatment Barnyard grass (herbicidal effect) [3]: 5 (Weed-killing rate is 100%.)
- Post-emergence treatment Bulrush (herbicidal effect) [4]: 5 (Weed-killing rate is 100%.)
- Post-emergence treatment Monochoria (herbicidal effect) [5]: 5 (Weed-killing rate is 100%.)
- Herbicidal effect Ec [6]: 5 (Weed-killing rate is 100%.)
- Herbicidal effect Vp [7]: 5 (Weed-killing rate is 100%.)
- Herbicidal effect Ga [8]: 5 (Weed-killing rate is 100%.)
- Herbicidal effect Xs [9]: 5 (Weed-killing rate is 100%.)
- Herbicidal effect Am [10]: 5 (Weed-killing rate is 100%.)
- Herbicidal effect At [11]: 5 (Weed-killing rate is 100%.)
- Phytotoxicity So [12]: 3 (Crop-killing rate is 70-89%.)
- Phytotoxicity Wh [13]: 4 (Crop-killing rate is 90-99%.)
- Herbicidal effect Ec [14]: 5 (Weed-killing rate is 100%.)
- Herbicidal effect Vp [15]: 5 (Weed-killing rate is 100%.)
- Herbicidal effect Ga [16]: 5 (Weed-killing rate is 100%.)
- Herbicidal effect Xs [17]: 5 (Weed-killing rate is 100%.)
- Herbicidal effect Am [18]: 5 (Weed-killing rate is 100%.)
- Herbicidal effect At [19]: 5 (Weed-killing rate is 100%.)
- Phytotoxicity So [20]: 3 (Crop-killing rate is 70-89%.)
- Phytotoxicity Wh [21]: 4 (Crop-killing rate is 90-99%.)

Source: patent publication US6444617B1, “Fused-heterocycle dicarboxylic acid diamide derivatives or salts thereof, herbicide and usage thereof” (Nihon Nohyaku Co., Ltd., priority 1998, dated 2002)
